Experimental data: PubChem BioAssay AID330 (DTP/NCI, 2004)
Where “and” joins values, the source holds several entries; their conditions need not be identical. Equal values may be shown once. Inconclusive results and toxic doses are left out. How the source made its calls: active means survival T/C of 150% or more; inactive means T/C below 125% in these data. Square brackets hold non-standard residues; d marks the D form. Peptide text beside a SMILES is read from it. ξ: configuration not given here. ξL = CC(C)CC(N)C(=O)O

Test system: P388 leukemia ip, CD2F1 mice, survival T/C
Assay: NCI In Vivo Anticancer Drug Screen. Data for tumor model P388 Leukemia (intraperitoneal) in CD2F1 (CDF1) mice
Details: endpoint: median survival time, higher = longer survival
Method in brief: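 Mice carrying the transplanted tumor received test compound or vehicle. Survival was recorded in each group, and the value is the treated-group measurement divided by that of the vehicle-treated control group.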

[1] = dose: 100.0 mg/kg/injection, schedule: Q01DX001 (ip), vehicle: Klucel (hydroxypropylcellulose) (HPC)
[2] = dose: 200.0 mg/kg/injection, schedule: Q01DX001 (ip), vehicle: Klucel (hydroxypropylcellulose) (HPC)
[3] = dose: 400.0 mg/kg/injection, schedule: Q01DX001 (ip), vehicle: Klucel (hydroxypropylcellulose) (HPC)
[4] = dose: 60.0 mg/kg/injection, schedule: Q01DX005 (ip), vehicle: saline with Tween-80
[5] = dose: 120.0 mg/kg/injection, schedule: Q01DX005 (ip), vehicle: saline with Tween-80
[6] = dose: 240.0 mg/kg/injection, schedule: Q01DX005 (ip), vehicle: saline with Tween-80
[7] = dose: 50.0 mg/kg/injection, schedule: Q01DX009 (ip), vehicle: saline with Tween-80
[8] = dose: 100.0 mg/kg/injection, schedule: Q01DX009 (ip), vehicle: saline with Tween-80
[9] = dose: 200.0 mg/kg/injection, schedule: Q01DX009 (ip), vehicle: saline with Tween-80
[10] = dose: 100.0 mg/kg/injection, schedule: Q01DX009 (ip), vehicle: saline
[11] = dose: 200.0 mg/kg/injection, schedule: Q01DX009 (ip), vehicle: saline
[12] = dose: 50.0 mg/kg/injection, schedule: Q01DX005 (ip), vehicle: saline with Tween-80
[13] = dose: 100.0 mg/kg/injection, schedule: Q01DX005 (ip), vehicle: saline with Tween-80
[14] = dose: 200.0 mg/kg/injection, schedule: Q01DX005 (ip), vehicle: saline with Tween-80
[15] = dose: 50.0 mg/kg/injection, schedule: Q01DX005 (ip), vehicle: Klucel (hydroxypropylcellulose) (HPC)
[16] = dose: 100.0 mg/kg/injection, schedule: Q01DX005 (ip), vehicle: Klucel (hydroxypropylcellulose) (HPC)
[17] = dose: 200.0 mg/kg/injection, schedule: Q01DX005 (ip), vehicle: Klucel (hydroxypropylcellulose) (HPC)
[18] = dose: 25.0 mg/kg/injection, schedule: Q01DX009 (ip), vehicle: saline with Tween-80
[19] = dose: 100.0 mg/kg/injection, schedule: Q04DX003 (ip), vehicle: saline with Tween-80

Measured: T/C

CC(=O)NNc1cccc(Cl)n1
inactive: [1] 98 % of control | [2] 96 % of control | [3] 97 % of control

CCOc1c(N=Nc2ccccc2Cl)c(C)nn1C(=S)S
inactive: dose: 15.0 mg/kg/injection, schedule: Q01DX005 (ip), vehicle: Klucel + Tween-80 95 % of control | dose: 30.0 mg/kg/injection, schedule: Q01DX005 (ip), vehicle: Klucel + Tween-80 100 % of control | dose: 60.0 mg/kg/injection, schedule: Q01DX005 (ip), vehicle: Klucel + Tween-80 96 % of control

CCCCCCCCCCCCCCCCCC[N+]1(CC)CCCC1
inactive: dose: 6.25 mg/kg/injection, schedule: Q01DX009 (ip), vehicle: saline 97 % of control | dose: 12.5 mg/kg/injection, schedule: Q01DX009 (ip), vehicle: saline 97 % of control | dose: 25.0 mg/kg/injection, schedule: Q01DX009 (ip), vehicle: saline 97 % of control

CCOC(=O)/C=C/C(F)(F)F
inactive: dose: 30.0 mg/kg/injection, schedule: Q01DX005 (ip), vehicle: saline with Tween-80 100 % of control | dose: 30.0 mg/kg/injection, schedule: Q01DX005 (ip), vehicle: saline 94 % of control | [4] 100 % of control | dose: 60.0 mg/kg/injection, schedule: Q01DX005 (ip), vehicle: saline 99 % of control and 101 % of control | [5] 100 % of control | dose: 120.0 mg/kg/injection, schedule: Q01DX005 (ip), vehicle: saline 100 % of control and 101 % of control | [6] 107 % of control | dose: 240.0 mg/kg/injection, schedule: Q01DX005 (ip), vehicle: saline 100 % of control and 120 % of control

CC(=O)OC1CCC2(C)C(C1)CC(OC(C)=O)C1C2CC(OC(C)=O)C2(C)C(C(C)CC(=O)C(=O)c3ccccc3)CCC12 (centres undefined)
inactive: [7] 103 % of control | [8] 94 % of control | [9] 98 % of control

COc1ccc(/C=C/C(=O)c2cc(C(=O)O)c(OC)cc2OC)cc1OC
inactive: dose: 50.0 mg/kg/injection, schedule: Q01DX009 (ip), vehicle: suspension in saline 117 % of control and 120 % of control | dose: 100.0 mg/kg/injection, schedule: Q01DX009 (ip), vehicle: suspension in saline 123 % of control

O=C1CCCc2c1cc(C1CCCC1)c1ccccc21
inactive: dose: 60.0 mg/kg/injection, schedule: Q01DX005 (ip), vehicle: Klucel (hydroxypropylcellulose) (HPC) 104 % of control | dose: 120.0 mg/kg/injection, schedule: Q01DX005 (ip), vehicle: Klucel (hydroxypropylcellulose) (HPC) 94 % of control | dose: 240.0 mg/kg/injection, schedule: Q01DX005 (ip), vehicle: Klucel (hydroxypropylcellulose) (HPC) 101 % of control

CCN(CC)CCC#N
inactive: dose: 50.0 mg/kg/injection, schedule: Q01DX009 (ip), vehicle: saline 94 % of control | [10] 87 % of control | [11] 88 % of control

Cc1onc(-c2ccccc2)c1C(C)(O)c1ccccc1 (centres undefined)
inactive: [1] 90 % of control | [2] 93 % of control | [3] 88 % of control

CC(=O)C1(C)CC=CCC1C(=O)O (centres undefined)
inactive: [10] 100 % of control | [11] 100 % of control | dose: 400.0 mg/kg/injection, schedule: Q01DX009 (ip), vehicle: saline 100 % of control

Cc1ccc(CCNC(=O)c2c3nc4c(C(=O)NCCc5ccc(C)cc5)ccc(Br)c4oc-3c(Br)c(=O)c2N)cc1
inactive: [12] 93 % of control | [13] 86 % of control | [14] 106 % of control

CC(C)c1ccc(Nc2n[nH]c(=S)s2)cc1
inactive: [15] 105 % of control | [16] 100 % of control | [17] 99 % of control

CCOC(=O)/C(C#N)=C\c1ccc(/C=C(\C#N)C(=O)OCC)cc1
inactive: [18] 90 % of control | [7] 100 % of control | [8] 90 % of control | [19] 95 % of control

CSC(=C(C#N)C#N)N1CC1
inactive: dose: 12.5 mg/kg/injection, schedule: Q01DX001 (ip), vehicle: DMSO 103 % of control | dose: 25.0 mg/kg/injection, schedule: Q01DX001 (ip), vehicle: DMSO 97 % of control | dose: 50.0 mg/kg/injection, schedule: Q01DX001 (ip), vehicle: DMSO 96 % of control

O=c1n(-c2ccccc2)c(=O)n2n1C1C=CC2C2C3OC3C21 (centres undefined)
inactive: dose: 12.5 mg/kg/injection, schedule: Q04DX003 (ip), vehicle: Klucel (hydroxypropylcellulose) (HPC) 100 % of control | dose: 25.0 mg/kg/injection, schedule: Q04DX003 (ip), vehicle: Klucel (hydroxypropylcellulose) (HPC) 101 % of control | dose: 50.0 mg/kg/injection, schedule: Q04DX003 (ip), vehicle: Klucel (hydroxypropylcellulose) (HPC) 108 % of control

OC(Nc1ncccn1)C(Cl)(Cl)Cl (centres undefined)
inactive: [7] 104 % of control | [8] 100 % of control | [9] 100 % of control

CC(C)CC(NC(=O)CN)C(=O)NCC(=O)NCC(=O)O (centres undefined) (H-G[ξL]GG-OH)
inactive: [15] 100 % of control | [16] 102 % of control | [17] 95 % of control

c1cc2c3c(c1)nc(CCCc1nc4cccc5c4n1CCC5)n3CCC2
inactive: dose: 25.0 mg/kg/injection, schedule: Q04DX003 (ip), vehicle: saline with Tween-80 95 % of control | dose: 50.0 mg/kg/injection, schedule: Q04DX003 (ip), vehicle: saline with Tween-80 86 % of control | [19] 90 % of control

C(=N\N1CCCCCC1)/c1c2ccccc2cc2ccccc12
inactive: dose: 50.0 mg/kg/injection, schedule: Q01DX005 (ip), vehicle: Klucel + Tween-80 89 % of control | dose: 100.0 mg/kg/injection, schedule: Q01DX005 (ip), vehicle: Klucel + Tween-80 90 % of control | dose: 200.0 mg/kg/injection, schedule: Q01DX005 (ip), vehicle: Klucel + Tween-80 92 % of control

CC1=C(C#N)C2(N)OC1(C)C1C(=O)C=CC(=O)C12 (centres undefined)
inactive: [12] 110 % of control | [13] 107 % of control | [14] 108 % of control

CCN(CC)CCNC(=O)c1nn(C)c(=O)[nH]c1=O
inactive: [15] 108 % of control | [16] 119 % of control | [17] 99 % of control

COc1ccc(/C=C/C(=O)c2ccccc(=O)c2O)cc1
inactive: dose: 50.0 mg/kg/injection, schedule: Q01DX001 (ip), vehicle: Klucel (hydroxypropylcellulose) (HPC) 106 % of control | [1] 101 % of control | [2] 105 % of control | [3] 92 % of control

O=C1CCC2C(C3SCCCS3)=CCN12 (centres undefined)
inactive: [4] 97 % of control | [5] 95 % of control | [6] 101 % of control

CN(C(=O)C(Cl)Cl)c1ccc(-c2csc(-c3ccc(O)cc3)n2)cc1
inactive: dose: 100.0 mg/kg/injection, schedule: Q04DX003 (ip), vehicle: Klucel (hydroxypropylcellulose) (HPC) 100 % of control | dose: 200.0 mg/kg/injection, schedule: Q04DX003 (ip), vehicle: Klucel (hydroxypropylcellulose) (HPC) 99 % of control | dose: 400.0 mg/kg/injection, schedule: Q04DX003 (ip), vehicle: Klucel (hydroxypropylcellulose) (HPC) 99 % of control

CC1CCC2(C(=O)O)CCC3(C)C(=CCC4C5(C)CC(O)C(O)C(C)(C(=O)O)C5CCC43C)C2C1(C)O (centres undefined)
inactive: dose: 33.0 mg/kg/injection, schedule: Q01DX001 (ip), vehicle: saline with Tween-80 100 % of control | dose: 50.0 mg/kg/injection, schedule: Q01DX001 (ip), vehicle: saline with Tween-80 100 % of control | dose: 75.0 mg/kg/injection, schedule: Q01DX001 (ip), vehicle: saline with Tween-80 90 % of control

COc1cc2c(cc1O)C(=O)CCC2
inactive: dose: 50.0 mg/kg/injection, schedule: Q01DX009 (ip), vehicle: Klucel (hydroxypropylcellulose) (HPC) 102 % of control | dose: 100.0 mg/kg/injection, schedule: Q01DX009 (ip), vehicle: Klucel (hydroxypropylcellulose) (HPC) 103 % of control | dose: 200.0 mg/kg/injection, schedule: Q01DX009 (ip), vehicle: Klucel (hydroxypropylcellulose) (HPC) 104 % of control

S=c1cc(-c2ccccc2)c(-c2ccccc2)c(-c2ccccc2)s1
inactive: dose: 100.0 mg/kg/injection, schedule: Q01DX001 (ip), vehicle: saline with Tween-80 91 % of control | dose: 200.0 mg/kg/injection, schedule: Q01DX001 (ip), vehicle: saline with Tween-80 94 % of control

O=c1[nH]c(=O)n(O)c2nc[nH]c12
inactive: dose: 12.5 mg/kg/injection, schedule: Q01DX009 (ip), vehicle: saline with Tween-80 90 % of control | [18] 100 % of control | [7] 90 % of control
